# According to patent publication US20100168146A1, “Composition Comprising (R)-Spiro[L-Azabicyclo[2.2.2]Octane-3,2'(3'H)-Furo[2,3-B]Pyridine (AZD0328) and its Use in the Treatment of Alzheimer's Disease, ADHD or Cognitive Dysfunction” (priority 2008, published 2010):
# “And” between values parts separate entries of the source, which are not always exact repeats. Identical values can stand only once. “Also recorded” adds a separate entry of the source. Like-named read-outs stand apart in the source and are kept apart here.
# Legend:
# [1] = target: α7 receptor binding sites (Rattus norvegicus, UniProt Q05941); assay type: in vivo; details: sc, 2-4 h
# Sequence of α7 receptor binding sites (Q05941 23-502): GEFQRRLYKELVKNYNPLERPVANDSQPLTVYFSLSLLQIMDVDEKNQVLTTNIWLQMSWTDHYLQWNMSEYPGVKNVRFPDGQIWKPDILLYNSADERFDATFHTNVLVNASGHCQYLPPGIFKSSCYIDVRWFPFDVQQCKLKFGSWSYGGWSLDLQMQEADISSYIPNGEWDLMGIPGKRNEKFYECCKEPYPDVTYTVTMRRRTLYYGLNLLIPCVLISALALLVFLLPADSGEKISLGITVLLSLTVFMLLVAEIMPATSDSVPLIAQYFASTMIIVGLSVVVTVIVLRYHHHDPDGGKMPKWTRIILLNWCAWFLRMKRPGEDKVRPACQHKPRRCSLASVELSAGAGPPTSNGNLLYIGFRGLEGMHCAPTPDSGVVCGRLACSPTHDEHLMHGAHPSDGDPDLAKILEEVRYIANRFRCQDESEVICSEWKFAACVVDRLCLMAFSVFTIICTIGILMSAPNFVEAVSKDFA
# [2] = [14C]-AZD0328 QWBA / mass balance; assay type: in vivo, rat
# Protocol: In the mass balance study conducted in fed rats, a Tmax of 0.5 h to 1 h was observed following single and multiple oral doses (solution). The bioavailability of AZD0328 (total radioactivity) in this study was >90%. […] Generally speaking, the elimination was complete within the 24-hour interval at the dose levels tested.
# AZD0328 is a low protein binding molecule across species including human (<15%) across the concentration range 21.6 to 21,630 ng/mL (0.1 to 100 μM). In most species, the binding was concentration and gender independent. […] [^14C]-AZD0328-derived radioactivity was rapidly distributed to the organs and tissues with high levels of radioactivity associated with the contents of the GI tract and the major excretion organs, including kidney and liver. The radioactivity declined rapidly and by 168 h postdose radioactivity levels were not detectable in most tissues, with the exception of a few ocular tissues and nasal turbinates. […] Notable association of [^14C]-AZD0328-related radioactivity with the melanin-containing tissues was observed, with measurable radioactivity still present in the ocular tissue at 216 h postdate. [^14C]-AZD0328-derived radioactivity crossed the placenta.
# Pharmacokinetics and mass balance of [^14C]-AZD0328 were investigated in rats. The excretion of [^14C]-AZD0328-derived radioactivity in rats was mainly through the kidney. Over the course of the study, radioactivity recovered in urine and feces accounted for approximately 85% and 8%, respectively.
# [3] = Single oral dose PK in healthy human volunteers (Table A); assay type: in vivo
# Protocol: Total oral doses of AZD0328 in the range 0.025-0.68 mg produced mean plasma concentrations of 0.6-15 nM, consistent with the range of plasma concentrations found to be associated with improved performance in the spatial delayed response test in monkeys. Total oral doses of AZD0328 in the range 0.005-2 mg produced mean plasma concentrations of 0.17-43.9 nM, within the range of plasma concentrations found to be associated with improved performance in rodent models.
# FFX rats = experiment: Hippocampal LTP in vivo in FFX rats; parameters: species or system rat; details: 0.3 mg/kg
# Protocol: AZD0328 reversed a deficit in hippocampal long-term potentiation (LTP) in FFX Sprague Dawley rats (Table 2). […] 0.3 mg/kg of AZD0328 was ineffective in this test.
# rhesus monkeys = experiment: Intravenous self-administration (reinforcing potential)
# Text: The compound was compared with cocaine and saline for its ability to maintain intravenous self-administration in the monkeys under a lever-press induced drug infusion schedule.
# [4] = PK/TK single dose studies; assay type: in vivo; details: rhesus monkey, plasma
# Protocol: Pharmacokinetic studies in rats and monkeys were used to estimate the plasma concentrations associated with doses at which AZD0328 improved cognitive performance in these species. For example, in rhesus monkeys, two studies were conducted to determine the pharmacokinetic profile of AZD0328 after administration of 0.048 and 1.7 mg per kg AZD0328. […] We thus estimated the peak plasma concentrations in monkeys that received AZD0328 at 0.00048-0.016 mg per kg to be 0.6-18 nM. Similar studies and calculations in rats, when extended to mice, led us to estimate plasma concentrations at 0.001-0.1 mg per kg body weight to be 0.29-100 nM in these species.
# This section provides a summary of the pharmacokinetic and metabolism properties of AZD0328 derived from in vivo studies. […] The derived PK/TK parameters from these studies are presented in Table 4 for single dose studies (DMR4, 0619LR, 20030191PCR, DM016, DMB10, DMW12, 50190, 0190DD and 03.330/1), and are presented in Table 5 multiple dose PK/TK studies (DMR4, 0612AR, DMB15, 50190, 0190DD and 0295AD).
# dogs = experiment: Maximum tolerated dose and 7 days oral toxicity; assay type: in vivo; details: dog
# Protocol: Single doses of 4.5 to 17 mg/kg were administrated to test AZD0328 to 2 male and 2 female dogs. […] Signs of nausea and at the higher doses vomiting was seen. In the 7 days repeated dose study 2 male and 2 female dogs were given 35 mg/kg per day. However, vomiting was the major clinical sign recorded during the study.
# rats [5] = experiment: Spontaneous locomotor activity; assay type: in vivo; details: Wistar rat, oral gavage, 90 min session
# Protocol: AZD0328 was investigated for possible effects on spontaneous locomotor activity in rats (n=6/group)(Table 3). Animals were individually placed in locomotor activity boxes for a 90 min test session. Movements within the box were measured by infrared beams, and activity was assessed as ambulatory counts, stereotypic counts, vertical counts, and resting time.
# rats [6] = experiment: Modified Irwin screen; assay type: in vivo; details: Wistar rat, oral gavage, up to 4 h postdose
# Protocol: The effects of AZD0328 were assessed in the modified Irwin screen, a behavioural, neurological and overt toxicity scoring protocol battery designed to detect a wide range of side effects (Table 3). The findings in the Irwin screen serve as a gross indication of CNS-mediated effects.
# guinea pigs = experiment: Cardiac repolarisation in anesthetised guinea pig (MAP); assay type: in vivo; details: highest dose, total plasma concentration 8.5 μM
# Protocol: Effects of AZD0328 on ventricular repolarisation and intracardiac conduction were investigated in 6 anesthetised and ventilated guinea pigs (Table 3). For the electrophysiological characterisation, monophasic action potentia MAP duration at 90% repolarisation (MAPD90), ventricular conduction velocity (MAP rise time), and atrioventricular (AV) conduction time were recorded during cardiac pacing. AZD0328 had dose-dependent effects on the electrophysiological activities in the guinea pig heart. At the highest dose, resulting in a total plasma concentration of 8.5 μM, MAPD90 and AV conduction time were prolonged by 20% and 13%, respectively. It is concluded that AZD0328 delayed ventricular repolarisation in the anesthetised guinea pig by 10% at a total plasma concentration of 2.4 μM.
# [7] = single oral 0.025 mg, geometric mean
# [8] = single oral 0.075 mg, geometric mean
# [9] = single oral 0.23 mg, geometric mean
# [10] = single oral 0.68 mg, geometric mean
# [11] = single oral 1.35 mg, geometric mean
# [12] = single oral 2 mg, geometric mean
smiles,measurement,setting,value
"c1cnc2c(c1)C[C@@]1(CN3CCC1CC3)O2 [AZD0328, (R)-Spiro[1-azabicyclo[2.2.2]octane-3,2′(3′H)-furo[2,3-b]pyridine]]","Active dose, [125I]-α-bungarotoxin binding ex vivo increased receptor number",[1],0.1 µg/kg
same,"Absorbed (urinary radioactivity and AUC, oral versus iv)",[2]; female rat,95%
same,"Absorbed (urinary radioactivity and AUC, oral versus iv)",[2]; male rat,97%
same,Radioactivity recovered in feces,[2]; rat,~8%
same,Radioactivity recovered in urine,[2]; rat,approximately 85%
same,Cmax/Dose,"[3]; single oral 0.005 mg, geometric mean (% CV)",0.007 (24)
same,AUC/Dose,[3]; [7],0.053
same,CL/F,[3]; [7],19.0 L/h
same,Cmax/Dose,[3]; [7],0.006
same,AUC/Dose,[3]; [8],0.049
same,Cmax/Dose,[3]; [8],0.006
same,AUC/Dose,[3]; [9],0.061
same,Cmax/Dose,[3]; [9],0.006
same,t1/2,[3]; [9],6.7 h
same,AUC/Dose,[3]; [10],0.046
same,Cmax/Dose,[3]; [10],0.005
same,t1/2,[3]; [10],6.0 h
same,AUC/Dose,[3]; [11],0.054
same,Cmax/Dose,[3]; [11],0.005
same,AUC/Dose,[3]; [12],0.046
same,CL/F,[3]; [12],22.0 L/h
same,Cmax/Dose,[3]; [12],0.005
same,Hippocampal LTP,FFX rats,ineffective
same,iv bolus dose after which one monkey died within minutes,rhesus monkeys; initial dose-finding study,receiving 34.8 mg/kg as iv bolus
same,Reinforcing effect,"rhesus monkeys; rhesus monkey, iv infusion 0.384, 1.15 and 3.84 mg/kg/infusion",did not display reinforcing properties; also recorded: No reinforcing effect seen at any
same,Self-administration level,"rhesus monkeys; rhesus monkey, not greater than saline",0.2-1.7 infusions per session
same,AUC,"[4]; male, im, 0.048 mg/kg, read-out: AUC (converted)",14.9 ng·h/mL and 0.0684 µM·h
same,AUC,"[4]; intramuscular, 0.016 mg/kg, rhesus monkeys, read-out: AUC at NOAEL for behavioral side effects",0.028 µM·h
same,Dose with slight QT prolongation (ECG),dogs,≥ 8.6 mg/kg
same,Dose without effect on locomotor activity,rats [5],up to 129.8 mg/kg
same,Dose with sedation,rats [6],129.8 mg/kg up to 4 h postdose.
same,AV conduction time prolongation,guinea pigs,13%
same,MAPD90 prolongation,guinea pigs,20%
